Structures can show the parent of a compound that is named as a salt.
Target: SARS-CoV-2 Mac1 (Severe acute respiratory syndrome coronavirus 2, UniProt P0DTD1)
Assay: biochemical
Details: for %inhibition: 100 µM, inhibitor; for inhibition at 100 µM: read-out: %inhibition

| Compound | %inhibition [%] | inhibition at 100 µM [%] |
| --- | --- | --- |
| CC(=O)NS(=O)(=O)c1ccc(N)cc1 [Sulfacetamide Sodium] | 3.132 |  |
| O=C1CC2(CCCC2)CC(=O)N1CCCCN1CCN(c2ncccn2)CC1 [Buspirone HCl] |  | 7.05 |
| CCCCCCCCc1ccc(CCC(N)(CO)CO)cc1 [Fingolimod (FTY720) HCl] |  | 33 |
| NC(=O)c1cc(N2CC2)c([N+](=O)[O-])cc1[N+](=O)[O-] [CB1954] |  | 5.18 |
| NC(CO)(CO)CO [Trometamol] |  | 3.46 |
| Oc1c(I)cc(Cl)c2cccnc12 [Clioquinol] |  | 6.9 |
| [O-][n+]1cccc(CO)c1 [Mepiroxol] |  | 12.3 |
| CC(=O)Oc1ccc(C(c2ccc(OC(C)=O)cc2)c2ccccn2)cc1 [Bisacodyl] |  | 0 |
| C[C@]12C=CC(=O)C=C1CC[C@@H]1[C@@H]2C(=O)C[C@@]2(C)[C@H]1CC[C@]2(O)C(=O)CO [Prednisone] |  | 0 |
| C[n+]1ccccc1/C=N/O [Pralidoxime chloride] |  | 8.15 |
| CCc1ccc(Cc2ccc3c(c2)[C@]2(OC3)O[C@H](CO)[C@@H](O)[C@H](O)[C@H]2O)cc1 [Tofogliflozin(CSG 452)] |  | 1.23 |
| N=C(N)NC(=N)N1CCOCC1 [Moroxydine HCl] |  | 0.197 |
| CN(C)CCn1nnnc1SCC1=C(C(=O)O)N2C(=O)[C@@H](NC(=O)Cc3csc(N)n3)[C@H]2SC1 [Cefotiam hydrochloride] |  | 23.3 |
| O=C(O)CC(O)(CC(=O)O)C(=O)O [Citric acid trilithium salt tetrahydrate] |  | 0 |
| CCCCNc1cc(C(=O)O)cc(S(N)(=O)=O)c1Oc1ccccc1 [Bumetanide] |  | 25.7 |
| N=C(N)Nc1ccc(C(=O)Oc2ccc3cc(C(=N)N)ccc3c2)cc1 [Nafamostat Mesylate] |  | 0 |
| CN1CCN(CCCN2c3ccccc3Sc3ccc(C(F)(F)F)cc32)CC1 [Trifluoperazine 2HCl] |  | 0 |
| Cc1cccc(C)c1OCC(C)N (centres unmarked) [Mexiletine HCl] |  | 9.05 |
| COc1ccc(C2C(=O)c3ccccc3C2=O)cc1 [Anisindione] |  | 2.26 |
| NCCS [Cysteamine HCl] |  | 35.3 |
| CCCSc1ccc2[nH]c(NC(=O)OC)nc2c1 [Albendazole] |  | 0 |
| CCc1nc(N)nc(N)c1-c1ccc(Cl)cc1 [Pyrimethamine] |  | 3.53 |
| Clc1ccc(C(Cn2ccnc2)OCc2csc3c(Cl)cccc23)c(Cl)c1 (centres unmarked) [Sertaconazole nitrate] |  | 0 |
| Cc1ccc(Cl)c(Nc2ccccc2C(=O)O)c1Cl [Meclofenamate Sodium] |  | 5.23 |
| CC(C)c1cc2c(cc1S(=O)(=O)O)[C@@]1(C)CCC[C@@](C)(C(=O)O)[C@@H]1CC2 [Ecabet sodium] |  | 10.4 |
| C=C=CCNC(=O)c1ccc(F)cc1 [Diastase] |  | 0 |

| Compound | %inhibition [%] | inhibition at 100 µM [%] |
| --- | --- | --- |
| CN[C@H](CC(C)C)C(=O)N[C@H]1C(=O)N[C@@H](CC(N)=O)C(=O)N[C@H]2C(=O)N[C@H]3C(=O)N[C@H](C(=O)N[C@H](C(=O)O)c4cc(O)cc(O)c4-c4cc3ccc4O)[C@H](O)c3ccc(c(Cl)c3)Oc3cc2cc(c3O[C@@H]2O[C@H](CO)[C@@H](O)[C@H](O)[C@H]2O[C@H]2C[C@](C)(N)[C@H](O)[C@H](C)O2)Oc2ccc(cc2Cl)[C@H]1O [Vancomycin HCl] |  | 0 |
| CNCCC=C1c2ccccc2CCc2ccccc21 [Nortriptyline hydrochloride] |  | 0 |
| Nc1nc2[nH]cc(CCc3ccc(C(=O)N[C@@H](CCC(=O)O)C(=O)O)cc3)c2c(=O)[nH]1 [Pemetrexed] | 4.612 |  |
| O[C@H](CNC[C@@H](O)[C@H]1CCc2cc(F)ccc2O1)[C@@H]1CCc2cc(F)ccc2O1 [Nebivolol HCl] |  | 0 |
| CCN1CC(CCN2CCOCC2)C(c2ccccc2)(c2ccccc2)C1=O (centres unmarked) [Doxapram HCl] | 9.802 |  |
| C[C@@H](CN1CC(=O)NC(=O)C1)N1CC(=O)NC(=O)C1 [Dexrazoxane HCl (ICRF-187, ADR-529)] | 32.25 |  |
| COc1c(C)c2c(c(O)c1C/C=C(\C)CCC(=O)O)C(=O)OC2 [Mycophenolic acid] |  | 0 |
| COc1cc(NS(C)(=O)=O)ccc1Nc1c2ccccc2nc2ccccc12 [Amsacrine hydrochloride] |  | 27 |
| CC(=O)N[C@@H](CCC(N)=O)C(=O)O [Aceglutamide] |  | 0 |
| CN(C/C=C/C#CC(C)(C)C)Cc1cccc2ccccc12 [Terbinafine] | 49.96 |  |
| CC(N)[C@]12C[C@H]3C[C@H](C[C@H](C3)C1)C2 (some centres unmarked) [Rimantadine Hydrochloride] |  | 4.71 |
| CN(C)[C@@H]1C(O)=C(C(N)=O)C(=O)[C@@]2(O)C(O)=C3C(=O)c4c(O)ccc(Cl)c4[C@@](C)(O)[C@H]3C[C@@H]12 [Chlortetracycline HCl] |  | 1.82 |
| CNC(=O)c1cc(Oc2ccc(NC(=O)Nc3ccc(Cl)c(C(F)(F)F)c3)c(F)c2)ccn1 [Regorafenib (BAY 73-4506)] | 2.978 |  |
| CCCNC(=O)NS(=O)(=O)c1ccc(Cl)cc1 [Chlorpropamide] |  | 0 |
| CC(C)N1CCN(c2ccc(OC[C@H]3CO[C@](Cn4cncn4)(c4ccc(Cl)cc4Cl)O3)cc2)CC1 (racemic) [Terconazole] |  | 4.88 |
| C[C@]12CC[C@@H]3c4ccc(O)cc4C[C@@H](CCCCCCCCC[S+]([O-])CCCC(F)(F)C(F)(F)F)[C@H]3[C@@H]1CC[C@@H]2O (some centres unmarked) [Fulvestrant] |  | 1.46 |
| CCOC(=O)c1c(C)n(C)c2ccc(O)cc12 [Mecarbinate] |  | 0 |
| CC1(C)O[C@@H]2[C@@H](CO[C@@]3(COS(N)(=O)=O)OC(C)(C)O[C@@H]23)O1 [Topiramate] |  | 0 |
| CC(=O)OCC1=C(C(=O)O)N2C(=O)[C@@H](NC(=O)Cc3cccs3)[C@H]2SC1 [Cephalothin] |  | 8.54 |
| COc1ccc(NS(=O)(=O)c2ccc(N)cc2)nn1 [Sulfamethoxypyridazine] |  | 4.31 |
| CCN1CCN(Cc2ccc(Nc3ncc(F)c(-c4cc(F)c5nc(C)n(C(C)C)c5c4)n3)nc2)CC1 [Abemaciclib] |  | 4.16 |
| COc1ccc(C(CN(C)C)C2(O)CCCCC2)cc1 (centres unmarked) [Venlafaxine HCl] | 0 |  |
| OC(CCN1CCCC1)(c1ccccc1)C1CCCCC1 (centres unmarked) [Procyclidine HCl] |  | 6.52 |
| COc1cc2nccc(Oc3ccc(NC(=O)NC4CC4)c(Cl)c3)c2cc1C(N)=O [lenvatinib Mesylate] | 0 |  |
| O=C(c1ccc(F)c(F)c1Nc1ccc(I)cc1F)N1CC(O)([C@@H]2CCCCN2)C1 [Cobimetinib (GDC-0973, RG7420)] |  | 5.28 |
| O=C(O)CSCC(=O)NC1CCSC1=O (centres unmarked) [Erdosteine] |  | 12.3 |

| Compound | %inhibition [%] | inhibition at 100 µM [%] |
| --- | --- | --- |
| CCc1oc2ccccc2c1C(=O)c1cc(Br)c(O)c(Br)c1 [Benzbromarone] |  | 6.57 |
| CN(C(=O)CN(CCO)CC(=O)N(C)C(C)(C)Cc1ccccc1)C(C)(C)Cc1ccccc1 [Oxethazaine] |  | 19.2 |
| CC(C)(CO)C(O)C(=O)NCCCO (racemic) [DL-Panthenol] |  | 0 |
| COc1ccc(Cl)cc1C(=O)NCCc1ccc(S(=O)(=O)NC(=O)NC2CCCCC2)cc1 [Glyburide (Glibenclamide)] |  | 8.25 |
| COC(=O)[C@@H]1CC2=CC(=O)CC[C@]2(C)[C@@]23O[C@@H]2C[C@@]2(C)[C@@H](CC[C@@]24CCC(=O)O4)[C@H]13 [Eplerenone] |  | 3.58 |
| CCC(=O)NCC[C@@H]1CCc2ccc3c(c21)CCO3 [Ramelteon] |  | 21 |
| C1CNCCNCCNCCN1 [Cyclen] |  | 0 |
| CC[C@@H](C(N)=O)N1CCCC1=O [Levetiracetam] |  | 0 |
| CCS(=O)(=O)N1CC(CC#N)(n2cc(-c3ncnc4[nH]ccc34)cn2)C1 [Baricitinib (LY3009104, INCB028050)] |  | 28.1 |
| COc1ccc([C@@H]2Sc3ccccc3N(CCN(C)C)C(=O)[C@@H]2OC(C)=O)cc1 [Diltiazem HCl] |  | 25.7 |
| Cn1cnc2c(F)c(Nc3ccc(Br)cc3Cl)c(C(=O)NOCCO)cc21 [Selumetinib (AZD6244)] |  | 24.4 |
| CCCCc1ncc(/C=C(\Cc2cccs2)C(=O)O)n1Cc1ccc(C(=O)O)cc1 [Eprosartan Mesylate] |  | 26.7 |
| COc1cnc(NS(=O)(=O)c2ccc(N)cc2)nc1 [Sulfameter] |  | 0 |
| NS(=O)(=O)c1cc2c(cc1Cl)N=C(CSCc1ccccc1)NS2(=O)=O [Benzthiazide] |  | 0 |
| C[C@@H](CN1CC(=O)NC(=O)C1)N1CC(=O)NC(=O)C1 [Dexrazoxane] | 12.37 |  |
| CN1[C@@H]2CC[C@H]1C[C@@H](OC(=O)c1c[nH]c3ccccc13)C2 [Tropisetron HCl] | 30.45 |  |
| C[N+](C)(C)CCOC(N)=O [Carbachol] |  | 3.56 |
| CC(=O)c1ccc(S(=O)(=O)NC(=O)NC2CCCCC2)cc1 [Acetohexamide] |  | 17.8 |
| Cc1cccc([C@H](C)c2c[nH]cn2)c1C [Dexmedetomidine HCl] | 0 |  |
| CO[C@H]1C[C@@H]2CC[C@@H](C)[C@@](O)(O2)C(=O)C(=O)N2CCCC[C@H]2C(=O)O[C@H]([C@H](C)C[C@@H]2CC[C@@H](OCCO)[C@H](OC)C2)CC(=O)[C@H](C)/C=C(\C)[C@@H](O)[C@@H](OC)C(=O)[C@H](C)C[C@H](C)/C=C/C=C/C=C/1C [Everolimus (RAD001)] |  | 11.2 |
| COC(c1ccccc1)(c1ccccc1)[C@H](Oc1nc(C)cc(C)n1)C(=O)O [Ambrisentan] |  | 0 |
| CO/N=C(\C(=O)N[C@@H]1C(=O)N2C(C(=O)[O-])=C(C[n+]3ccn4ncccc43)CS[C@H]12)c1nsc(N)n1 [Cefozopran hydrochloride] |  | 8.9 |
| O=[N+]([O-])O[C@@H]1CO[C@H]2[C@@H]1OC[C@@H]2O [Isosorbide Mononitrate] |  | 2.49 |
| CCOC(=O)c1cncn1[C@H](C)c1ccccc1 [Etomidate] |  | 8.82 |
| NC(=O)[C@@H](CCC(F)(F)F)N(Cc1ccc(-c2ncon2)cc1F)S(=O)(=O)c1ccc(Cl)cc1 [Avagacestat (BMS-708163)] |  | 0 |

Reference: doi:[…]/2021.10.07.463234v2 (biorxiv, 2021)
